According to patent US9409952B2, “Peptide-compound cyclization method” (Chugai Seiyaku Kabushiki Kaisha, priority 2011, dated 2016):
Positions of bridges follow the written chain, without caps; N, C: chain ends. Non-standard residues stand in square brackets, D forms with d. Residues, ends and D or L forms follow the SMILES beside them. *: point of attachment. Lys(Me2) = CN(C)CCCC[C@H](N)C(=O)O; NMeF = CN[C@@H](Cc1ccccc1)C(=O)O; NMeL = CN[C@@H](CC(C)C)C(=O)O; NMeS = CN[C@@H](CO)C(=O)O; NMeA = CN[C@@H](C)C(=O)O; Piperidide = C1CCN(*)CC1; β3hA = C[C@H](N)CC(=O)O; Abu = CC[C@H](N)C(=O)O; Sar = CNCC(=O)O

Assays:
[1] = Metabolic stability in human hepatic microsome; assay type: in vitro ADME; details: microsomes, pH 7.4; human hepatic microsome, NADPH(+); read-out: CL NADPH(+)
[2] = PAMPA (parallel artificial membrane permeability assay); assay type: in vitro ADME; details: PAMPA; membrane permeation rate (Pe); 50 mM MOPSO buffer pH 6.5 with 5.0% glycocholic acid, 37° C., 18 hours; read-out: iPAMPA Pe
Outline: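 Artificial membrane was 10% (w/v) egg lecithin plus 0.5% (w/v) cholesterol in dodecane on a PVDF filter. A 10 mM DMSO stock was added at 0.5% (v/v) to donor buffer (50 mM MOPSO, pH 6.5, 5.0% glycocholic acid). After 18 h at 37 °C, LC/MS or LC/UV gave donor and acceptor levels for Pe.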

Row | SMILES | microsomal CLint at 1 uM [1] | Papp at 18 hours, 50 µM [2]
1 | CNC(=O)CC[C@@H]1NC(=O)[C@H](CC(C)C)N(C)C(=O)[C@H](C)N(C)C(=O)[C@H](CC(C)C)N(C)C(=O)[C@H](Cc2ccccc2)NC(=O)[C@H](Cc2ccccc2)N(C)C(=O)[C@H](CC(C)C)NC(=O)[C@H](CC(C)C)N(C)C(=O)[C@H](C)N(C)C(=O)[C@@H](C(C)C)NC(=O)C[C@@H](C(=O)N2CCCCC2)NC1=O [DP-626] ([dV][NMeA][NMeL]L[NMeF]F[NMeL][NMeA][NMeL]E(NHMe)D-Piperidide; lactam N-11) | 28 µL/min/mg | 36 ×10⁻⁶ cm/s
2 | CNC(=O)CC[C@@H]1NC(=O)[C@H](CC(C)C)N(C)C(=O)[C@H](C)N(C)C(=O)[C@@H](C(C)C)NC(=O)C[C@@H](C(=O)N2CCCCC2)NC(=O)[C@H]([C@@H](C)O)NC(=O)[C@H](C)N(C)C(=O)CN(C)C(=O)[C@H](CC(C)C)N(C)C(=O)[C@H](Cc2ccccc2)NC(=O)[C@H](Cc2ccccc2)N(C)C1=O [DP-627] ([dV][NMeA][NMeL]E(NHMe)[NMeF]F[NMeL][Sar][NMeA]TD-Piperidide; lactam N-11) | 9 µL/min/mg | 2.4 ×10⁻⁶ cm/s
3 | CC(C)C[C@H]1C(=O)N(C)[C@@H](CC(C)C)C(=O)N[C@H](C(=O)N(C)[C@@H](Cc2ccccc2)C(=O)N[C@@H](C)C(=O)N2CCCCC2)CC(=O)N[C@H](C(C)C)C(=O)N(C)[C@@H](C)C(=O)N(C)[C@@H](Cc2ccccc2)C(=O)N(C)[C@@H](C)C(=O)N[C@@H](CCCCN(C)C)C(=O)N(C)CC(=O)N[C@@H](C(C)C)C(=O)N1C [DP-631] ([dV][NMeA][NMeF][NMeA][Lys(Me2)][Sar]V[NMeL][NMeL]D[NMeF]A-Piperidide; lactam N-10) | 5 µL/min/mg | 1.6 ×10⁻⁶ cm/s
4 | CC(C)C[C@@H]1NC(=O)[C@H](CO)N(C)C(=O)[C@H](CC(C)C)N(C)C(=O)[C@H](CC(C)C)N(C)C(=O)[C@H](CC(C)C)N(C)C(=O)[C@@H](C)NC(=O)C[C@H](C)NC(=O)[C@H](CC(C)C)N(C)C(=O)[C@H](CC(C)C)NC(=O)[C@H](CC(C)C)N(C)C(=O)CN(C)C1=O [DP-639] (cyclo(L[NMeL][β3hA][dA][NMeL][NMeL][NMeL][NMeS]L[Sar][NMeL])) | 134 µL/min/mg | 33 ×10⁻⁶ cm/s
5 | CC[C@@H]1NC(=O)[C@H](CC(C)C)N(C)C(=O)[C@H](CC(C)C)NC(=O)[C@H](CC(C)C)N(C)C(=O)CN(C)C(=O)C[C@H](C)NC(=O)[C@H](CO)N(C)C(=O)[C@H](CC(C)C)N(C)C(=O)[C@H](CC(C)C)N(C)C(=O)[C@H](CC(C)C)N(C)C(=O)[C@@H](CC(C)C)NC1=O [DP-641] (cyclo([Abu][dL][NMeL][NMeL][NMeL][NMeS][β3hA][Sar][NMeL]L[NMeL])) | 91 µL/min/mg | 46 ×10⁻⁶ cm/s
6 | CC(C)C[C@@H]1NC(=O)[C@H](CC(C)C)N(C)C(=O)[C@H](C(C)C)NC(=O)[C@H](CC(C)C)N(C)C(=O)CN(C)C(=O)[C@H](CC(C)C)NC(=O)[C@H](CO)N(C)C(=O)[C@H](CC(C)C)N(C)C(=O)[C@H](CC(C)C)N(C)C(=O)C[C@H](C)NC(=O)[C@@H](CC(C)C)NC1=O [DP-642] (cyclo(L[Sar][NMeL]V[NMeL]L[dL][β3hA][NMeL][NMeL][NMeS])) | 65 µL/min/mg | 32 ×10⁻⁶ cm/s
7 | CC(C)C[C@@H]1NC(=O)C[C@H](C)NC(=O)[C@H](C(C)C)NC(=O)[C@H](CC(C)C)N(C)C(=O)CN(C)C(=O)[C@H](CC(C)C)NC(=O)[C@H](CO)N(C)C(=O)[C@H](CC(C)C)N(C)C(=O)[C@H](CC(C)C)N(C)C(=O)[C@H](CC(C)C)N(C)C(=O)[C@@H](CC(C)C)NC1=O [DP-643] (cyclo(L[Sar][NMeL]V[β3hA]L[dL][NMeL][NMeL][NMeL][NMeS])) | 24 µL/min/mg | 29 ×10⁻⁶ cm/s
8 | CC(C)C[C@@H]1NC(=O)[C@H](CO)N(C)C(=O)[C@H](CC(C)C)N(C)C(=O)[C@H](CC(C)C)N(C)C(=O)[C@H](CC(C)C)N(C)C(=O)C[C@H](C)NC(=O)[C@H](C)NC(=O)[C@H](CC(C)C)N(C)C(=O)[C@H](CC(C)C)NC(=O)[C@H](CC(C)C)N(C)C(=O)CN(C)C1=O [DP-644] (cyclo(A[β3hA][NMeL][NMeL][NMeL][NMeS]L[Sar][NMeL]L[NMeL])) | 80 µL/min/mg | 33 ×10⁻⁶ cm/s
